Measured values: patent US9839642B2, “Beta-tetrazolyl-propionic acids as metallo-beta-lactamase inhibitors” (priority 2014, dated 2017)

What was measured:
[1] = molecular target: IMP-1 (Serratia marcescens, UniProt P52699); assay: Enzyme activity: determination of IC50, fluorescence assay with CCF2-FA substrate; format: biochemical; settings: IMP-1 enzyme 2 pM, CCF2-FA 1.25 μM, 2 hours at 25° C.; read-out: IMP1 IC50
How it was run: (§1)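 100 mM KH2PO4 pH 7 + 0.005% Tween-20 + 10 μM ZnSO4; CCF2-FA 1.25 μM; NDM-1 1 pM, IMP-1 2 pM, VIM-1 30 pM; cpd 20–0.00063 μM final, DMSO 1:50. 2 h, 25° C. Ex 405/em 460 nm; IC50, 4-param fit.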

[2] = molecular target: NDM-1 (Klebsiella pneumoniae, UniProt C7C422); assay: as above; format: biochemical; settings: NDM-1 enzyme 1 pM, CCF2-FA 1.25 μM, 2 hours at 25° C.; read-out: NDM1 IC50
How it was run: as §1

[3] = molecular target: VIM-1 (Pseudomonas aeruginosa, UniProt A0A0F7KYQ8); assay: as above; format: biochemical; settings: VIM-1 enzyme 30 pM, CCF2-FA 1.25 μM, 2 hours at 25° C.; read-out: VIM1 IC50
How it was run: as §1

[4] = tested on: Escherichia coli expressing NDM-1 (CLB30016); assay: Antibiotic potentiation activity: synergistic concentration (MITC95) with imipenem, growth by OD600; format: cell-based; settings: E. coli CLB30016 (NDM-1), 95% inhibition of growth
How it was run: (§2)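 MITC95 = lowest inhibitor concentration giving 95% growth inhibition, read by absorbance after 22–24 h at 35° C. Compound range 200 μM to 0.195 μM, imipenem fixed at 1 or 4 μg/ml, bacteria in 1.1×CAMHB from saline suspension diluted 1:100.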

[5] = tested on: Klebsiella pneumoniae expressing VIM-1 (IHMA599644); assay: as above; format: cell-based; settings: K. pneumoniae IHMA599644 (VIM-1), 95% inhibition of growth
How it was run: as §2

[6] = tested on: Serratia marcescens expressing IMP-1 (CL5741); assay: as above; format: cell-based; settings: S. marcescens CL5741 (IMP-1), 95% inhibition of growth
How it was run: as §2

Sequence of IMP-1 (P52699 19-246, looked up, species assumed): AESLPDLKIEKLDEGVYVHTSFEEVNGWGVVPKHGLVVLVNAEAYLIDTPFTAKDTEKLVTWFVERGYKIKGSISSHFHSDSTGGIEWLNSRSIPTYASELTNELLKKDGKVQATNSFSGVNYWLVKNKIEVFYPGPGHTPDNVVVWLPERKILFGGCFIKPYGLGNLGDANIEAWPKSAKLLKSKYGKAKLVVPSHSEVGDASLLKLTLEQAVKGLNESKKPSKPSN
Sequence of NDM-1 (C7C422 29-270, looked up, species assumed): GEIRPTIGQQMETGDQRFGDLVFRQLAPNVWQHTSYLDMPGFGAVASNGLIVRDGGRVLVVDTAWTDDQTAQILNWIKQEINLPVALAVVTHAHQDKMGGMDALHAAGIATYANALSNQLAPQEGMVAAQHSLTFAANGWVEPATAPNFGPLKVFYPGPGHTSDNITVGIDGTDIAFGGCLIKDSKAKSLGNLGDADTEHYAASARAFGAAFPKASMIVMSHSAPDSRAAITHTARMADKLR

| Compound | IC50 [1] [nM] | IC50 [2] [nM] | IC50 [3] [nM] | NDM1 EC30016 MITC95 [4] [µM] | VIM1 KP599644 MITC95 [5] [µM] | IMP1 SM5741 MITC95 [6] [µM] |
| --- | --- | --- | --- | --- | --- | --- |
| CCC[C@H](C(=O)O)[C@H](CCCc1ccc(N)nc1)c1nnn[nH]1 [Example 406, (2S,3S)-6-(6-aminopyridin-3-yl)-2-propyl-3-(1H-tetrazol-5-yl)hexanoic acid] | 815 | 428 | 14.9 | 6.25 | 6.25 | 37.5 |
| CC(C)C[C@H](C(=O)O)[C@H](Cc1cc(Cl)nc(NCCO)c1)c1nnn[nH]1 [Example 407] | 923 | 34.4 | 2.22 | 18.75 | 50 | 75 |
| CCC[C@H](C(=O)O)[C@H](Cc1ccc(C2CCNCC2)nc1)c1nnn[nH]1 [Example 408, (S)-2-((S)-2-(6-(piperidin-4-yl)pyridin-3-yl)-1-(1H-tetrazol-5-yl)ethyl)pentanoic acid] | 3450 | 250 | 6.5 | 7.813 | 25 | 75 |
| CCC[C@H](C(=O)O)[C@H](Cc1ccc(C2CCNC2)nc1)c1nnn[nH]1 (stereo partly drawn) [Example 409, (2S)-2-((1S)-2-(6-(pyrrolidin-3-yl)pyridin-3-yl)-1-(1H-tetrazol-5-yl)ethyl)pentanoic acid] | 19800 | 810 | 14 | 12.5 | 25 | 200 |
| CCC[C@H](C(=O)O)[C@H](Cc1ccc(C2CCN(C=N)C2)nc1)c1nnn[nH]1 (stereo partly drawn) [Example 410, (2S)-2-((1S)-2-(6-(1-(iminomethyl)pyrrolidin-3-yl)pyridin-3-yl)-1-(1H-tetrazol-5-yl)ethyl)pentanoic acid] | 6030 | 417 | 6.23 | 7.813 | 25 | 75 |
| CCC[C@H](C(=O)O)[C@H](Cc1ccc(C2CCN(C(=N)N)C2)nc1)c1nnn[nH]1 (stereo partly drawn) [Example 411, (2S)-2-((1S)-2-(6-(1-carbamimidoylpyrrolidin-3-yl)pyridin-3-yl)-1-(1H-tetrazol-5-yl)ethyl)pentanoic acid] | 2770 | 179 | 2.96 | 4.688 | 12.5 | 50 |
| CCC[C@H](C(=O)O)[C@H](Cc1ccc(C2CCNCC2)cc1)c1nnn[nH]1 [Example 412, (S)-2-((S)-2-(4-(piperidin-4-yl)phenyl)-1-(1H-tetrazol-5-yl)ethyl)pentanoic acid] | 275 | 71.4 | 4.49 | 9.375 | 12.5 | 9.375 |
| CCC[C@H](C(=O)O)[C@H](Cc1ccc(C2CCNC2)cc1)c1nnn[nH]1 (stereo partly drawn) [Example 413, (2S)-2-((1S)-2-(4-(pyrrolidin-3-yl)phenyl)-1-(1H-tetrazol-5-yl)ethyl)pentanoic acid] | 1100 | 146 | 4.6 | 6.25 | 12.5 | 25 |
